Measurements reported in patent US20190315823A1, “SMALL CATIONIC ANTI-BIOFILM AND IDR PEPTIDES” (priority 2013, published 2019).
Ends that are not written are not given here.

Tested on: methicillin resistant Staphylococcus aureus (MRSA) biofilm
Assay: not given
Conditions: approximate peptide concentration […] (around 3 μg/ml); compared to untreated samples
Protocol: Methods of assessment of anti-biofilm activity—Biofilm formation was initially analyzed using a static abiotic solid surface assay as described elsewhere (de la Fuente-Nunez et al., 2012). Dilutions (1/100) of overnight cultures were incubated in BM2 biofilm-adjusted medium [62 mM potassium phosphate buffer (pH 7), 7 mM (NH4)2SO4, 2 mM MgSO4, 10 μM FeSO4, 0.4% (wt/vol) glucose, 0.5% (wt/vol) Casamino Acids], or a nutrient medium such as Luria Broth, in polypropylene microtiter plates (Falcon, United States) in the absence (control) or presence of peptide. Peptide was added at time zero (prior to adding the diluted, overnight cultures) in varying concentrations, and the decrease in biofilm formation was recorded at 22-46 h for most bacteria. Planktonic cells were removed, biofilm cells adhering to the side of the tubes were stained with crystal violet, and absorbance at 595 nm was measured using a microtiter plate reader (Bio-Tek Instruments Inc., United States). Some peptides were screened against two Gram negative organisms, P. aeruginosa and K. pneumoniae using a Bioflux apparatus (AutoMate Scientific, Berkeley, Calif.; http://www.autom8.com/bioflux_biofilm.html), which allows for the high-throughput, real-time analysis of biofilms.

Substance	% Biofilm inhibition
1002-Q8: single substituted 1002 peptide (VQRWLIVQRIRK-NH2) [Peptide 1002-Q8]	20%
HH2-G10: single substituted HH2 peptide (VQLRIRVAVGRA-NH2)	58%
HH2-K6: single substituted HH2 peptide (VQLRIKVAVIRA-NH2)	64%
1018-R9: single substituted 1018 peptide (VRLIVAVRRWRR-NH2) [Peptide 1018-R9]	59%
1018-K1: single substituted 1018 peptide (KRLIVAVRIWRR-NH2) [Peptide 1018-K1]	49%
1002-K7: single substituted 1002 peptide (VQRWLIKWRIRK-NH2) [Peptide 1002-K7]	28%
HH2-R1: single substituted HH2 peptide (RQLRIRVAVIRA-NH2)	53%
HH2-K3: single substituted HH2 peptide (VQKRIRVAVIRA-NH2)	14%
1018-A7: single substituted 1018 peptide (VRLIVAARIWRR-NH2) [Peptide 1018-A7]	52%
HH2-W4: single substituted HH2 peptide (VQLWIRVAVIRA-NH2)	58%
HH2-I7: single substituted HH2 peptide (VQLRIRIAVIRA-NH2)	69%
HH2-G2: single substituted HH2 peptide (VGLRIRVAVIRA-NH2)	66%
1018-W4: single substituted 1018 peptide (VRLWVAVRIWRR-NH2) [Peptide 1018-W4]	67%

Tested on: human peripheral blood mononuclear cells (MCP-1)
Assay: SPOT-synthesized derivative screen: production of chemokine MCP-1
Assay type: cell-based
Conditions: Table 12; No LPS; human PBMC, peptide at ~18-24 μM
Protocol: Venous blood (20 ml) from healthy volunteers was collected in Vacutainer® collection tubes containing sodium heparin as an anticoagulant (Becton Dickinson, Mississauga, ON) in accordance with UBC ethical approval and guidelines. Blood was diluted 1:1 with complete RPMI 1640 medium and separated by centrifugation over a Ficoll-Paque® Plus (Amersham Biosciences, Piscataway, N.J., USA) density gradient. White blood cells were isolated from the buffy coat, washed twice in RPMI 1640 complete medium, and the number of peripheral blood mononuclear cells (PBMC) was determined by Trypan blue exclusion. PBMC (5×10^5) were seeded into 12-well tissue culture dishes (Falcon; Becton Dickinson) at 0.75 to 1×10^6 cells/ml at 37° C. in 5% CO2. The above conditions were chosen to mimic conditions for circulating blood monocytes entering tissues at the site of infection via extravasation.
Following incubation of the cells under various treatment regimens, the tissue culture supernatants were centrifuged at 1000×g for 5 min, then at 10,000×g for 2 min to obtain cell-free samples. Supernatants were aliquoted and then stored at −20° C. prior to assay for various chemokines by capture ELISA (eBioscience and BioSource International Inc., CA, USA respectively)

Substance	Fold increase in MCP1 cf. untreated cells
1002-Q8: single substituted 1002 peptide (VQRWLIVQRIRK-NH2) [Peptide 1002-Q8]	0.9
HH2-G10: single substituted HH2 peptide (VQLRIRVAVGRA-NH2)	72
HH2-K6: single substituted HH2 peptide (VQLRIKVAVIRA-NH2)	142
1018-R9: single substituted 1018 peptide (VRLIVAVRRWRR-NH2) [Peptide 1018-R9]	0.9
1018-K1: single substituted 1018 peptide (KRLIVAVRIWRR-NH2) [Peptide 1018-K1]	1.2
1002-K7: single substituted 1002 peptide (VQRWLIKWRIRK-NH2) [Peptide 1002-K7]	0.9
HH2-R1: single substituted HH2 peptide (RQLRIRVAVIRA-NH2)	25
HH2-K3: single substituted HH2 peptide (VQKRIRVAVIRA-NH2)	11
1018-A7: single substituted 1018 peptide (VRLIVAARIWRR-NH2) [Peptide 1018-A7]	0.5
HH2-W4: single substituted HH2 peptide (VQLWIRVAVIRA-NH2)	24
HH2-I7: single substituted HH2 peptide (VQLRIRIAVIRA-NH2)	8.8
HH2-G2: single substituted HH2 peptide (VGLRIRVAVIRA-NH2)	3.8
1018-W4: single substituted 1018 peptide (VRLWVAVRIWRR-NH2) [Peptide 1018-W4]	1.2

Same assay, conditions: Table 12; No LPS; human PBMC, peptide at ~18-24 μM; background subtracted 139 (HH2 derivatives), 170 (1018 derivatives), 242 (1002 and hybrid peptides) pg/ml

Substance	MCP1
1002-Q8: single substituted 1002 peptide (VQRWLIVQRIRK-NH2) [Peptide 1002-Q8]	-36.2 pg/mL
HH2-G10: single substituted HH2 peptide (VQLRIRVAVGRA-NH2)	12063 pg/mL
HH2-K6: single substituted HH2 peptide (VQLRIKVAVIRA-NH2)	23989 pg/mL
1018-R9: single substituted 1018 peptide (VRLIVAVRRWRR-NH2) [Peptide 1018-R9]	-10 pg/mL
1018-K1: single substituted 1018 peptide (KRLIVAVRIWRR-NH2) [Peptide 1018-K1]	40 pg/mL
1002-K7: single substituted 1002 peptide (VQRWLIKWRIRK-NH2) [Peptide 1002-K7]	-36.2 pg/mL
HH2-R1: single substituted HH2 peptide (RQLRIRVAVIRA-NH2)	4034 pg/mL
HH2-K3: single substituted HH2 peptide (VQKRIRVAVIRA-NH2)	1763 pg/mL
1018-A7: single substituted 1018 peptide (VRLIVAARIWRR-NH2) [Peptide 1018-A7]	-88 pg/mL
HH2-W4: single substituted HH2 peptide (VQLWIRVAVIRA-NH2)	3945 pg/mL
HH2-I7: single substituted HH2 peptide (VQLRIRIAVIRA-NH2)	1332 pg/mL
HH2-G2: single substituted HH2 peptide (VGLRIRVAVIRA-NH2)	471 pg/mL
1018-W4: single substituted 1018 peptide (VRLWVAVRIWRR-NH2) [Peptide 1018-W4]	29 pg/mL

Tested on: LPS-stimulated human peripheral blood mononuclear cells (IL1-β)
Assay: not given
Assay type: cell-based
Conditions: Table 12; cells stimulated with 10 ng/ml LPS
Protocol: LPS from P. aeruginosa strain H103 was highly purified free of proteins and lipids using the Darveau-Hancock method. Briefly, P. aeruginosa was grown overnight in LB broth at 37° C. Cells were collected and washed and the isolated LPS pellets were extracted with a 2:1 chloroform:methanol solution to remove contaminating lipids. Purified LPS samples were quantitated using an assay for the specific sugar 2-keto-3-deoxyoctosonic acid (KDO assay) and then resuspended in endotoxin-free water (Sigma-Aldrich).

Substance	Fold change in IL1β relative to no peptide LPS stimulated cells
1002-Q8: single substituted 1002 peptide (VQRWLIVQRIRK-NH2) [Peptide 1002-Q8]	0.66
HH2-G10: single substituted HH2 peptide (VQLRIRVAVGRA-NH2)	1.06
HH2-K6: single substituted HH2 peptide (VQLRIKVAVIRA-NH2)	0.80
1018-R9: single substituted 1018 peptide (VRLIVAVRRWRR-NH2) [Peptide 1018-R9]	0.24
1018-K1: single substituted 1018 peptide (KRLIVAVRIWRR-NH2) [Peptide 1018-K1]	0.13
1002-K7: single substituted 1002 peptide (VQRWLIKWRIRK-NH2) [Peptide 1002-K7]	0.12
HH2-R1: single substituted HH2 peptide (RQLRIRVAVIRA-NH2)	1.50
HH2-K3: single substituted HH2 peptide (VQKRIRVAVIRA-NH2)	1.34
1018-A7: single substituted 1018 peptide (VRLIVAARIWRR-NH2) [Peptide 1018-A7]	0.68
HH2-W4: single substituted HH2 peptide (VQLWIRVAVIRA-NH2)	0.30
HH2-I7: single substituted HH2 peptide (VQLRIRIAVIRA-NH2)	0.68
HH2-G2: single substituted HH2 peptide (VGLRIRVAVIRA-NH2)	1.07
1018-W4: single substituted 1018 peptide (VRLWVAVRIWRR-NH2) [Peptide 1018-W4]	0.14

Same assay, conditions: Table 12; cells stimulated with 10 ng/ml LPS; LPS alone 1313 (HH2 derivatives), 1927 (1018 derivatives), 2455 (1002 and hybrid peptides) pg/ml

Substance	IL1β Production
1002-Q8: single substituted 1002 peptide (VQRWLIVQRIRK-NH2) [Peptide 1002-Q8]	1608 pg/mL
HH2-G10: single substituted HH2 peptide (VQLRIRVAVGRA-NH2)	1391 pg/mL
HH2-K6: single substituted HH2 peptide (VQLRIKVAVIRA-NH2)	1055 pg/mL
1018-R9: single substituted 1018 peptide (VRLIVAVRRWRR-NH2) [Peptide 1018-R9]	310 pg/mL
1018-K1: single substituted 1018 peptide (KRLIVAVRIWRR-NH2) [Peptide 1018-K1]	173 pg/mL
1002-K7: single substituted 1002 peptide (VQRWLIKWRIRK-NH2) [Peptide 1002-K7]	302 pg/mL
HH2-R1: single substituted HH2 peptide (RQLRIRVAVIRA-NH2)	1965 pg/mL
HH2-K3: single substituted HH2 peptide (VQKRIRVAVIRA-NH2)	1761 pg/mL
1018-A7: single substituted 1018 peptide (VRLIVAARIWRR-NH2) [Peptide 1018-A7]	891 pg/mL
HH2-W4: single substituted HH2 peptide (VQLWIRVAVIRA-NH2)	399 pg/mL
HH2-I7: single substituted HH2 peptide (VQLRIRIAVIRA-NH2)	897 pg/mL
HH2-G2: single substituted HH2 peptide (VGLRIRVAVIRA-NH2)	1400 pg/mL
1018-W4: single substituted 1018 peptide (VRLWVAVRIWRR-NH2) [Peptide 1018-W4]	182 pg/mL
